Measured values taken from patent US4959372A, “Anti-hypertensive substituted 2-azabicyclooctane-3-carboxylic acids” (Adir et lie, priority 1987, dated 1990).

Tested on: converting enzyme (enzyme for conversion of angiotensin I to angiotensin II)
Test: Inhibition of the converting enzyme (angiotensin I / angiotensin II pressor response) after oral administration to unanesthetized dogs
Type: in vivo
Details: 1 mg/kg
Procedure: The compound of the invention for which E=H was tested by oral administration on unanesthetized dogs. The arterial blood pressure of the dogs was measured with a pressure gauge ("Statham P23 Db") after catheterization of the aorta via the femoral artery. The recording is carried out with a recording apparatus ("Brush 400"). Angiotensin I and angiotensin II are injected into the animals intravenously at doses of 0.5 and 0.10 γ/kg, respectively. A dose/activity curve is established for each of these hormones. The compound according to the invention for which E=H is then administered orally at a dose of 1 mg/kg. A second dose/activity curve is then established for angiotensin I and for angiotensin II after administration of the test product.

Cl.NCCCC[C@H](N[C@@H](CCc1ccccc1)C(=O)O)C(=O)N1C2CCC(CC2)[C@H]1C(=O)O [compound of the invention for which E=H, (3S)-2-{(S)-N-[(S)-1-carboxy-3-phenylpropyl]lysyl}-3-carboxy-2-azabicyclo[2.2.2]octane hydrochloride]
percentage inhibition of the converting enzyme (15 minutes after administration): 80% | percentage inhibition of the converting enzyme (30 minutes after administration): ~100% | percentage inhibition of the converting enzyme (6 hours after administration): greater than 70%
